Source: patent US20100144708A1, “HETEROCYCLIC COMPOUNDS CONTAINING NITROGEN ATOMS OR PHARMACEUTICALLY ACCEPTABLE SALTS THEREOF, PROCESS FOR THE PREPARATION THEREOF AND PHARMACEUTICAL COMPOSITION COMPRISING THE SAME FOR TREATMENT OF CANCER” (Korea Research Instititute of Bioscience and Biotechnology, priority 2006, published 2010)

Experiments:
Assay type in all cases: cell-based, Human
[1] = tested on: PC-3 (prostate cancer); assay: Test for inhibition of tumor cell growth (SRB), PC-3; details: Homo sapiens; 48 hours, SRB staining; read-out: GI50 PC-3 (prostate ancer)
Method: (§1) Human tumor cell lines, PC-3 (prostate cancer, ATCC, USA), MBA-MB-231 (breast cancer, ATCC, USA), ACHN (kidney cancer, ATCC, USA), and NUGC-3 (gastric cancer, ATCC, USA) were cultured in RPMI 1640 media containing 10% fetal bovine serum (FBS).
(§2) In order to measure anticancer activity, a suitable concentration of cells in RPMI 1640 media containing 5% fetal bovine serum (about 5×10^4 cells/□) was aliquotted in 96-well plates, and cultured in 5% CO2 at 37° C. On day one after aliquoting the cells, before the cells were treated with the compounds, in order to determine their concentration, 50[…] of 50% trichloroacetic acid was added to each well of time zero (T0) plate, and cells were fixed to determine zero point. The cells treated with the compounds were fixed on each well having 50[…] of 50% trichloroacetic acid after 48 hours. The final concentrations of the test compounds were 0.01, 0.03, 0.1, 0.3, and 1[…]/□. The fixed plate was washed with water and dried, and then 100[…] of 0.4% sulphorhodamine B (SRB) dissolved in 0.1% acetic acid was added to the each well to stain the cells. The plate was allowed to stand for 30 minutes, and then washed with 0.1% acetic acid. Then, the plate was dried at room temperature, and treated with 10 mM tris base (pH 10.5) to dissolve staining reagent. An absorbance measured at 540 nm was calculated as a percentage of the control group, and then the concentration of the compound that inhibited tumor cell growth (GI50(□/□)) by 50% was determined.

[2] = tested on: MBA-MB-231 (breast cancer); assay: Test for inhibition of tumor cell growth (SRB), MBA-MB-231; details: Homo sapiens; 48 hours, SRB staining
Method: as §1, §2

[3] = tested on: ACHN (kidney cancer); assay: Test for inhibition of tumor cell growth (SRB), ACHN; details: Homo sapiens, ACHN; 48 hours, SRB staining
Method: as §1, §2

[4] = tested on: NUGC-3 (gastric cancer); assay: Test for inhibition of tumor cell growth (SRB), NUGC-3; details: Homo sapiens, NUGC-3; 48 hours, SRB staining
Method: as §1, §2

| GI50 [1] | GI50 [2] | GI50 [3] | GI50 [4] | SMILES |
| --- | --- | --- | --- | --- |
| 0.3 µg/mL | 1.29 µg/mL | > 10 µg/mL | 0.5 µg/mL | C=CC[N+]1(C)CCN(C(=O)CCCCCCCCCCCCC)CC1 [Example 13, 1-allyl-1-methyl-4-tetradecanoyl-piperazin-1-ium bromide] |
| 0.57 µg/mL | 2.44 µg/mL | 2.37 µg/mL | 0.54 µg/mL | CCCCCCCCCCCCCC(=O)N1CC[N+](C)(CC)CC1 [Example 14, 1-ethyl-1-methyl-4-tetradecanoyl-piperazin-1-ium iodide] |
| 1.42 µg/mL | > 10 µg/mL | > 10 µg/mL | 2.07 µg/mL | CCCCCCCCCCCCCC(=O)N1CC[N+](CC)(Cc2ccccc2)CC1 [Example 15, 1-benzyl-1-ethyl-4-tetradecanoyl-piperazin-1-ium bromide] |
| 0.41 µg/mL | 2.49 µg/mL | 4.26 µg/mL | 0.76 µg/mL | C=CC[N+]1(CC)CCN(C(=O)CCCCCCCCCCCCC)CC1 [Example 16, 1-allyl-1-ethyl-4-tetradecanoyl-piperazin-1-ium bromide] |
| 0.46 µg/mL | 1.28 µg/mL | 1.14 µg/mL | 0.47 µg/mL | C=CC[N+]1(C)CCN(C(=O)CCCCCCCCCCCCCCC)CC1.[Br-] [Example 17, 1-allyl-4-hexadecanoyl-1-methyl-piperazin-1-ium bromide] |
| 0.49 µg/mL | 0.92 µg/mL | 1.31 µg/mL | 1.16 µg/mL | CCCCCCCCCCCCCCCC(=O)N1CC[N+](C)(Cc2ccc(OC)cc2)CC1.[Cl-] [Example 18, 4-hexadecanoyl-1-(4-methoxy-benzyl)-1-methyl-piperazin-1-ium chloride] |
| 0.55 µg/mL | 1.7 µg/mL | 1.69 µg/mL | 0.63 µg/mL | C=CCCC[N+]1(C)CCN(C(=O)CCCCCCCCCCCCCCC)CC1.[Br-] [Example 19, 4-hexadecanoyl-1-methyl-1-pent-4-enyl-piperazin-1-ium bromide] |
| 0.67 µg/mL | 1.52 µg/mL | 1.58 µg/mL | 0.72 µg/mL | C=CCC[N+]1(C)CCN(C(=O)CCCCCCCCCCCCCCC)CC1.[Br-] [Example 20, 1-but-3-enyl-4-hexadecanoyl-1-methyl-piperazin-1-ium bromide] |
| 0.55 µg/mL | 1.16 µg/mL | 0.92 µg/mL | 0.46 µg/mL | CCCCCCCCCCCCCCCC(=O)N1CC[N+](CC)(Cc2ccccc2)CC1.[Br-] [Example 21, 1-benzyl-1-ethyl-4-hexadecanoyl-piperazin-1-ium bromide] |
| 0.37 µg/mL | 0.68 µg/mL | 0.5 µg/mL | 0.27 µg/mL | C=CC[N+]1(CC)CCN(C(=O)CCCCCCCCCCCCCCC)CC1.[Br-] [Example 22, 1-allyl-1-ethyl-4-hexadecanoyl-piperazin-1-ium bromide] |
| 0.8 µg/mL | 2.05 µg/mL | 1.89 µg/mL | 0.58 µg/mL | CCCCCCCCCCCCCCCC(=O)N1CC[N+](C)(CC)CC1.[I-] [Example 23, 1-ethyl-4-hexadecanoyl-1-methyl-piperazin-1-ium iodide] |
| 0.45 µg/mL | 0.76 µg/mL | 0.78 µg/mL | 0.4 µg/mL | C=CCCC[N+]1(CC)CCN(C(=O)CCCCCCCCCCCCCCC)CC1.[Br-] [Example 24, 1-ethyl-4-hexadecanoyl-1-pent-4-enyl-piperazin-1-ium bromide] |
| 0.4 µg/mL | 0.82 µg/mL | 2.84 µg/mL | 1.05 µg/mL | CCCCCCCCCCCCCCCCCC(=O)N1CC[N+](C)(Cc2ccccc2)CC1 [Example 25, 1-benzyl-1-methyl-4-octadecanoyl-piperazin-1-ium bromide] |
| 0.54 µg/mL | 1.13 µg/mL | 1.79 µg/mL | 0.88 µg/mL | C=CC[N+]1(C)CCN(C(=O)CCCCCCCCCCCCCCCCC)CC1 [Example 26, 1-allyl-1-methyl-4-octadecanoyl-piperazin-1-ium bromide] |
| 0.41 µg/mL | 1.43 µg/mL | 1.36 µg/mL | 0.67 µg/mL | CCCCCCCCCCCCCCCCCC(=O)N1CC[N+](C)(CC)CC1 [Example 27, 1-ethyl-1-methyl-4-octadecanoyl-piperazin-1-ium iodide] |
| 3.64 µg/mL | > 10 µg/mL | > 10 µg/mL | 5.21 µg/mL | CCCCCCCCCCCCCCCCCC(=O)N1CC[N+](CC)(Cc2ccccc2)CC1 [Example 28, 1-benzyl-1-ethyl-4-octadecanoyl-piperazin-1-ium bromide] |

| GI50 [1] | GI50 [2] | GI50 [3] | GI50 [4] | SMILES |
| --- | --- | --- | --- | --- |
| 0.84 µg/mL | 2.51 µg/mL | 2.43 µg/mL | 1.37 µg/mL | C=CC[N+]1(CC)CCN(C(=O)CCCCCCCCCCCCCCCCC)CC1 [Example 29, 1-allyl-1-ethyl-4-octadecanoyl-piperazin-1-ium bromide] |
| 0.34 µg/mL | 1.71 µg/mL | 1.23 µg/mL | 0.61 µg/mL | CCCCCCCCCCCCCCCCCCCC(=O)N1CC[N+](C)(CC)CC1 [Example 30, 1-ethyl-4-icosanoyl-1-methylpiperazin-1-ium iodide] |
| 0.31 µg/mL | 1.63 µg/mL | 1.39 µg/mL | 0.42 µg/mL | CCCCCCCCCCCCCCCCCCCC(=O)N1CC[N+](C)(C)CC1 [Example 31, 4-icosanoyl-1,1-dimethylpiperazin-1-ium iodide] |
| 0.59 µg/mL | 1.66 µg/mL | 1.89 µg/mL | 1.1 µg/mL | CCCCCCCCCCCCCCCCCCCC(=O)N1CC[N+](C)(Cc2ccccc2)CC1 [Example 32, 1-benzyl-4-icosanoyl-1-methylpiperazin-1-ium bromide] |
| 4.29 µg/mL | > 10 µg/mL | > 10 µg/mL | 3.45 µg/mL | C=CC[N+]1(C)CCN(C(=O)CCCCCCCCCCCCCCCCCCC)CC1 [Example 33, 1-allyl-4-icosanoyl-1-methylpiperazin-1-ium bromide] |
| 0.85 µg/mL | 2.01 µg/mL | 1.9 µg/mL | 1.22 µg/mL | CCCCCCCCCCCCCCCCCCCCCC(=O)N1CC[N+](C)(CC)CC1 [Example 34, 4-docosanoyl-1-ethyl-1-methylpiperazin-1-ium iodide] |
| 1.24 µg/mL | 1.98 µg/mL | 4.74 µg/mL | 1.9 µg/mL | CCCCCCCCCCCCCCCCCCCCCC(=O)N1CC[N+](C)(Cc2ccccc2)CC1 [Example 35, 1-benzyl-4-docosanoyl-1-methylpiperazin-1-ium bromide] |
| 0.96 µg/mL | 3.16 µg/mL | 2.37 µg/mL | 1.53 µg/mL | C=CC[N+]1(C)CCN(C(=O)CCCCCCCCCCCCCCCCCCCCC)CC1 [Example 36, 1-allyl-4-docosanoyl-1-methylpiperazin-1-ium bromide] |
| > 10 µg/mL | > 10 µg/mL | > 10 µg/mL | > 10 µg/mL | CCCCCCCCCCCCCCCCCCCCCC(=O)N1CC[N+](CC)(Cc2ccccc2)CC1 [Example 37, 1-benzyl-4-docosanoyl-1-ethylpiperazin-1-ium bromide] |
| 1.47 µg/mL | 2.53 µg/mL | 3.38 µg/mL | 1.54 µg/mL | C=CC[N+]1(CC)CCN(C(=O)CCCCCCCCCCCCCCCCCCCCC)CC1 [Example 38, 1-allyl-4-docosanoyl-1-ethylpiperazin-1-ium bromide] |
| 4.79 µg/mL | > 10 µg/mL | > 10 µg/mL | > 10 µg/mL | CCCCCCCCCCCCCCCCCCCCCCCC(=O)N1CC[N+](C)(Cc2ccccc2)CC1 [Example 40, 1-benzyl-1-methyl-4-tetracosanoylpiperazin-1-ium bromide] |
| 3.36 µg/mL | > 10 µg/mL | > 10 µg/mL | > 10 µg/mL | C=CC[N+]1(C)CCN(C(=O)CCCCCCCCCCCCCCCCCCCCCCC)CC1 [Example 41, 1-allyl-1-methyl-4-tetracosanoylpiperazin-1-ium bromide] |
| 3.77 µg/mL | > 10 µg/mL | > 10 µg/mL | > 10 µg/mL | CCCCCCCCCCCCCCCCCCCCCCCC(=O)N1CC[N+](C)(CC)CC1 [Example 42, 1-ethyl-1-methyl-4-tetracosanoylpiperazin-1-ium iodide] |
| 1.32 µg/mL | > 10 µg/mL | > 10 µg/mL | > 10 µg/mL | C=CCCCCCCCCC(=O)N1CC[N+](C)(CC=C)CC1 [Example 43, 1-allyl-1-methyl-4-undec-10-enoyl-piperazin-1-ium bromide] |
| 0.41 µg/mL | > 10 µg/mL | > 10 µg/mL | > 10 µg/mL | C=CCCCCCCCCC(=O)N1CC[N+](C)(Cc2ccccc2)CC1 [Example 44, 1-benzyl-1-methyl-4-undec-10-enoyl-piperazin-1-ium bromide] |
| 2.02 µg/mL | > 10 µg/mL | > 10 µg/mL | > 10 µg/mL | C=CCCCCCCCCC(=O)N1CC[N+](C)(C)CC1 [Example 45, 1,1-dimethyl-4-undec-10-enoyl-piperazin-1-ium iodide] |
